The source of these data is patent publication US20250186437A1, “CARBOLINE COMPOUNDS AND USE THEREOF” (PTC Therapeutics, Inc., priority 2021, published 2025).

Structures can show the parent of a compound that is named as a salt.

For assay [1], the system named is MOLM-13 cells. The assay is described as follows: MOLM-13 Cell Proliferation Assay (indicator of DHODH inhibition). Format: cell-based. Conditions: Homo sapiens, 72 Hours of culture, CellTiter-Glo, no uridine. The essentials:
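Proliferation readout via CellTiter-Glo luminescence after 72 h compound treatment (37 °C, 5% CO2, 0.5% DMSO) of MOLM-13 cells seeded at 10^4 per well in RPMI 1640/10% FBS, used as a DHODH-inhibition indicator since these cells rely on de novo pyrimidine synthesis.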

For assay [2], the system named is MOLM-13 cells. Description: MOLM-13 Uridine Rescue Assay. The format is cell-based. The settings on record: Homo sapiens; MOLM-13 cell proliferation with 100 μM Uridine added, 72 Hours of culture. As to the method: The following assay was conducted to measure proliferation of MOLM-13 cells in the presence of each compound studied. This assay was included as an indicator of DHODH inhibition, as growth of MOLM-13 cells is known to depend on synthesis of pyrimidines using the de novo pathway, which can be blocked by inhibition of DHODH. • 1. MOLM-13 cells were cultured in RPMI 1640 medium+10% Fetal Bovine Serum (FBS). Only low passage cells (<20) were used for the compound tests • 2. On day 1, Log-phase growing Molm-13 Cells were counted and diluted to 10^5 cells/mL in RPMI 1640 medium+10% FBS • 3. 100 μL of diluted MOLM-13 cells in 96 well white plates were seeded, for a final density of 10^4 cells/well. • 4. 0.5 μL of pre-diluted 200× compounds or DMSO control was added to each well. The final DMSO concentration was 0.5%. • 5. After 72 Hours of culture at 37° C., 5% CO2, the plates were taken out and cooled to RT, then 50 μL CellTiter-Glo® (Promega) was added, and the composition was mixed at RT for 10 minutes. • 6. The plates were then read by ViewLux (Speed-fast, Gain-High, Bining-1X, 5 seconds).
Several compounds were also tested in a Uridine rescue assay. In the Uridine rescue assay, using the procedure in Example 1 above, an additional plate of MOLM-13 cell cultures was prepared, to which 100 μM of Uridine was added in step 3 of the process.

Take `Nc1cc2[nH]c3c(c2cc1Cl)CCN(c1nccc(C(F)(F)F)n1)C3c1cnc(N2CCOCC2)nc1` (centres unmarked) [Compound 311, 6-chloro-1-[2-(morpholin-4-yl)pyrimidin-5-yl]-2-[4-(trifluoromethyl)pyrimidin-2-yl]-2,3,4,9-tetrahydro-1H-pyrido[3,4-b]indol-7-amine]: the IC50 in assay [1] was 2.1 nM; in assay [2], 8470 nM.
Taken in the same sequence, the figures for `Cc1ccc([C@H]2c3[nH]c4ccc(Cl)cc4c3CCN2c2nc(C(F)(F)F)cc(C(F)(F)F)n2)c(F)c1F` [Compound 407, (1S)-2-[4,6-bis(trifluoromethyl)pyrimidin-2-yl]-6-chloro-1-(2,3-difluoro-4-methylphenyl)-2,3,4,9-tetrahydro-1H-pyrido[3,4-b]indole] were 0.3 nM and 14700 nM.
As for `FC(F)(F)c1ncnc(N2CCc3c([nH]c4ccc(Cl)cc34)[C@@H]2c2cnc(N3CCOCC3)nc2)n1` [Compound 460, (1S)-6-chloro-1-[2-(morpholin-4-yl)pyrimidin-5-yl]-2-[4-(trifluoromethyl)-1,3,5-triazin-2-yl]-2,3,4,9-tetrahydro-1H-pyrido[3,4-b]indole], the IC50 in assay [1] stood at 1.3 nM; in assay [2], 1160 nM.
`Nc1c(Cl)ccc2[nH]c3c(c12)CCN(c1nccc(C(F)(F)F)n1)C3c1cnc(N2CCOCC2)nc1` (centres unmarked) [Compound 328, 6-chloro-1-[2-(morpholin-4-yl)pyrimidin-5-yl]-2-[4-(trifluoromethyl)pyrimidin-2-yl]-2,3,4,9-tetrahydro-1H-pyrido[3,4-b]indol-5-amine]: the IC50 was 2.9 nM in assay [1] and 10500 nM in assay [2].
On to `Cc1cc(C#N)nc(N2CCc3c([nH]c4ccc(Cl)cc34)C2c2cnc(N3CCOCC3)nc2)n1` (centres unmarked) [Compound 362, 2-{6-chloro-1-[2-(morpholin-4-yl)pyrimidin-5-yl]-1,3,4,9-tetrahydro-2H-pyrido[3,4-b]indol-2-yl}-6-methylpyrimidine-4-carbonitrile], for which the results for the IC50 in assay [1] and in assay [2] were 4.3 nM and 6810 nM, respectively.
For `FC(F)(F)c1cc(C(F)(F)F)nc(N2CCc3c([nH]c4ccc(Cl)cc34)C2c2ccc(N3CCOCC3)nc2)n1` (centres unmarked) [Compound 357, 2-[4,6-bis(trifluoromethyl)pyrimidin-2-yl]-6-chloro-1-[6-(morpholin-4-yl)pyridin-3-yl]-2,3,4,9-tetrahydro-1H-pyrido[3,4-b]indole formate (1:1)], the half-maximal inhibitory concentration (IC50) in assay [1] turned out to be 0.6 nM; in assay [2], 9300 nM.
On the same counts, the results for `FC(F)(F)c1ccnc(N2CCc3c([nH]c4ccc(Cl)cc34)[C@@H]2c2cnc(N3CCOCC3)nc2)n1` [Compound 408, (1S)-6-chloro-1-[2-(morpholin-4-yl)pyrimidin-5-yl]-2-[4-(trifluoromethyl)pyrimidin-2-yl]-2,3,4,9-tetrahydro-1H-pyrido[3,4-b]indole] are 1.2 nM and 11000 nM.
Regarding `N#Cc1ccc(C2c3[nH]c4ccc(Cl)cc4c3CCN2c2nccc(C(F)(F)F)n2)c(F)c1` (centres unmarked) [Compound 255, 4-{6-chloro-2-[4-(trifluoromethyl)pyrimidin-2-yl]-2,3,4,9-tetrahydro-1H-pyrido[3,4-b]indol-1-yl}-3-fluorobenzonitrile], the IC50 is 2.2 nM in assay [1] and 15600 nM in assay [2].
In the case of `CN1CCN(c2ncc([C@H]3c4[nH]c5ccc(Cl)cc5c4CCN3c3nc(C(F)(F)F)nc(C(F)(F)F)n3)cn2)CC1` [Compound 420, (1S)-2-[4,6-bis(trifluoromethyl)-1,3,5-triazin-2-yl]-6-chloro-1-[2-(4-methylpiperazin-1-yl)pyrimidin-5-yl]-2,3,4,9-tetrahydro-1H-pyrido[3,4-b]indole], the IC50 stood at 0.4 nM in assay [1] and 3120 nM in assay [2].
As for `N#Cc1ccnc(N2CCc3c([nH]c4ccc(Cl)cc34)C2c2cnc(N3CCOCC3)nc2)n1` (centres unmarked) [Compound 359, 2-{6-chloro-1-[2-(morpholin-4-yl)pyrimidin-5-yl]-1,3,4,9-tetrahydro-2H-pyrido[3,4-b]indol-2-yl}pyrimidine-4-carbonitrile], the values for the 50% inhibitory concentration (IC50) in assay [1] and in assay [2] were 8 nM and 5670 nM, respectively.
Consider `Cc1ccc(C2c3[nH]c4ccc(Cl)cc4c3CCN2c2nccc(C(F)(F)F)n2)c(F)c1` (centres unmarked) [Compound 254, 6-chloro-1-(2-fluoro-4-methylphenyl)-2-[4-(trifluoromethyl)pyrimidin-2-yl]-2,3,4,9-tetrahydro-1H-pyrido[3,4-b]indole], for which the IC50 came to 2.2 nM in assay [1] and 6910 nM in assay [2].
On the same counts, the results for `Cc1ccc(C2c3[nH]c4c(N)cc(Cl)cc4c3CCN2c2nccc(C(F)(F)F)n2)cc1` (centres unmarked) [Compound 231, 6-chloro-1-(4-methylphenyl)-2-[4-(trifluoromethyl)pyrimidin-2-yl]-2,3,4,9-tetrahydro-1H-pyrido[3,4-b]indol-8-amine] are 1.1 nM and 19300 nM.
On the same counts, the results for `CN1CCN(c2ncc(C3c4[nH]c5ccc(Cl)cc5c4CCN3c3nccc(C(F)(F)F)n3)cn2)CC1` (centres unmarked) [Compound 369, 6-chloro-1-[2-(4-methylpiperazin-1-yl)pyrimidin-5-yl]-2-[4-(trifluoromethyl)pyrimidin-2-yl]-2,3,4,9-tetrahydro-1H-pyrido[3,4-b]indole] are 4.5 nM and 5020 nM.
With `Cc1cc(C(F)(F)F)nc(N2CCc3c([nH]c4ccc(Cl)cc34)C2c2ccc(C)c(F)c2F)n1` (centres unmarked) [Compound 213, 6-chloro-1-(2,3-difluoro-4-methylphenyl)-2-[4-methyl-6-(trifluoromethyl)pyrimidin-2-yl]-2,3,4,9-tetrahydro-1H-pyrido[3,4-b]indole], the IC50 in assay [1] is 1 nM; in assay [2] it was 7600 nM.
Take `Cc1ccc(C2c3[nH]c4ccc(Cl)cc4c3CCN2c2nc(C)nc(C)n2)cc1` (centres unmarked) [Compound 355, 6-chloro-2-(4,6-dimethyl-1,3,5-triazin-2-yl)-1-(4-methylphenyl)-2,3,4,9-tetrahydro-1H-pyrido[3,4-b]indole]: the IC50 in assay [1] came out at 11.7 nM; in assay [2] it was 5660 nM.
As to `Cc1nc(C)nc(N2CCc3c([nH]c4ccc(Cl)cc34)C2c2cnc(N3CCOCC3)nc2)n1` (centres unmarked) [Compound 293, 6-chloro-2-(4,6-dimethyl-1,3,5-triazin-2-yl)-1-[2-(morpholin-4-yl)pyrimidin-5-yl]-2,3,4,9-tetrahydro-1H-pyrido[3,4-b]indole], the IC50 was 12.8 nM in assay [1] and 10600 nM in assay [2].
On the same counts, the results for `Cc1cc(C(F)(F)F)nc(N2CCc3c([nH]c4ccc(Cl)cc34)C2c2ccc(N3CCOCC3)nc2)n1` (centres unmarked) [Compound 372, 6-chloro-2-[4-methyl-6-(trifluoromethyl)pyrimidin-2-yl]-1-[6-(morpholin-4-yl)pyridin-3-yl]-2,3,4,9-tetrahydro-1H-pyrido[3,4-b]indole] are 1.6 nM and 16400 nM.
On the same counts, the results for `FC(F)(F)c1nc(N2CCc3c([nH]c4ccc(Cl)cc34)[C@@H]2c2ccc(N3CCOCC3)nc2)nc(C(F)(F)F)n1` [Compound 405, (1S)-2-[4,6-bis(trifluoromethyl)-1,3,5-triazin-2-yl]-6-chloro-1-[6-(morpholin-4-yl)pyridin-3-yl]-2,3,4,9-tetrahydro-1H-pyrido[3,4-b]indole] are 0.2 nM and 5880 nM.
On the same counts, the results for `Cc1ccnc(N2CCc3c([nH]c4ccc(Cl)cc34)C2c2ccc(N3CCOCC3)nc2)n1` (centres unmarked) [Compound 352, 6-chloro-2-(4-methylpyrimidin-2-yl)-1-[6-(morpholin-4-yl)pyridin-3-yl]-2,3,4,9-tetrahydro-1H-pyrido[3,4-b]indole] are 8.9 nM and 6410 nM.
